Consider 2 compounds from patent US4866083A, “2-t-butyl-3 alkyl-5-(m-hydroxyphenyl)-1,3-oxazolidines having mydriatic effect” (University of Iowa Research Foundation, priority 1987, dated 1989).

For data set [1] the following is noted: topical ocular; some individuals; cited from earlier work.
Data set [2] is described as follows: Stability in aqueous solutions. It is filed as physicochemical.
A short description of data set [3]: Distribution coefficient (log DC). Conditions: read-out: log DC (Dist. Coeff.). In kind it is physicochemical.
For another data set, the system named is rabbit eye. As to the kind of experiment: Mydriatic experiments, pupil diameter in the rabbit eye. It is filed as in vivo, New Zealand Rabbit. The procedure: The right eye of a normal adult New Zealand Rabbit (3-4 months) was used to measure mydriasis. A flood of diffuse light was placed at a fixed distance from the rabbit eye so that the initial pupil diameter prior to administering eye drops was about 3 mm. Changes in pupil diameter were measured from photographs taken with a 35 mm single lens reflex camera equipped with a close-up lens. Pupil diameters were measured at time 0 through about 5 hours. A dosing volume of 10 μl was administered to the right eye of a group of eight rabbits. A period of at least three days was allowed between instillations of each formulation.

A short description of data set [4]: Hydrolysis in buffered aqueous solution at 35° C. In kind it is physicochemical. The following applies: pH's between 1-7.5. As to the method: A series of experiments were conducted at 35° C. to determine the apparent first order hydrolysis rate constant for phenylephrine oxazolidine at […]. The progress of hydrolysis of the prodrug was followed by measuring the production of pivaldehyde subsequently trapped with thiosemicarbazide (pH<4) or semicarbazide (pH 4-7.5). The resulting formation of the carbazone derivative was followed using Uv spectroscopy at 235 and 265 nm (the spectroscopy was a 8450A UV/VIS Hewlett-Packard, Chicago, Ill.). The prodrug was dissolved in either pH 1, 2, 3, 4, 5, 6, 7 or 7.5 buffered aqueous solutions. The buffers used were hydrochloric acid, formate, acetate and phosphate solutions. The carbonyl trapping reagent was included in the buffer solutions at a concentration of 3.1×10(-3) M. The initial concentration of oxazolidine prodrug was about 1.8×10(-4) M. A volume of 3 ml was used for the reaction which was monitored directly in the absorbance cell. […] The concentration of carbazone was calculated by referring to a standard curve.

Molecules are shown by their SMILES.

On to `CNC[C@H](O)c1cccc(O)c1` [phenylephrine, 3-hydroxy-α-[(methylamino)methyl]-benzyl alcohol], for which the side effects entry in data set [1] is “hypertension, syncope, and even in some cases to myocardial infarction, leading to death”.
Consider `CN1C[C@@H](c2cccc(O)c2)OC1C(C)(C)C` (single isomer, unassigned) [phenylephrine oxazolidine, 2-t-butyl-3-methyl-5-(m-hydroxyphenyl)-1,3-oxazolidine], for which the “stability in aqueous solutions” value in data set [2] is reported as “not particularly stable in aqueous solutions”. In addition, the logD in data set [3] was 1.383 ± 0.013. The “potency relative to the aqueous solution of phenylephrine HCl” value with rabbit eye (based upon pupillary diameter, versus 10% viscous preparation of phenylephrine HCl, FIG. 2) is recorded as “approximately 10 times”. Further, the “mydriasis compared with phenylephrine HCl” value in the data set with rabbit eye (molar equivalent concentration to 10% oil suspension of phenylephrine HCl, 10 μl to right eye, FIG. 1) is recorded as “significantly greater mydriasis”. The half-life (in general, how long it takes for the measured level to halve) in data set [4] is 5 to 12 min.
